Each structure is given as a SMILES string. Bounds are passed on as bounds.

The test system of one data set is mice. As to the kind of experiment: Acute toxicity, intraperitoneal administration to mice. The settings on record: i.p. It is filed as in vivo. From the text: (§1) The acute toxicity was studied by intraperitoneal administration to mice. It is expressed in the form of LD50 (lethal dose causing the death of half of the animals) or LD0 (maximum non-lethal dose).
Data set [1] concerns cholesterol level in the plasma. As to the kind of experiment: Hypocholesterolemic activity: plasma cholesterol level in rats. Format: in vivo, male Wistar rats. Particulars: Rattus norvegicus, po, T=0 to T=+24 hours, not corrected for the variation in the control group, read-out: % Variation in the cholesterol level, variation in the subject treated; for change in vivo at 100 mg/kg: 100 mg/kg p.o. at T=0 and T=+7 hours; for change in vivo at 65 mg/kg: 65 mg/kg p.o. at T=0 and T=+7 hours. As for the experimental part:
Hypocholesterolemic activity
The hypocholesterolemic activity was studied on male Wistar rats (weighing about 200 to 220 g). Groups of 10 rats per product and per dose are fasted the day before the experiment. The products to be tested are administered in gum water (30 g/liter of gum arabic) at times T=0 and T=+7 hours. The cholesterol level in the plasma is measured at times T=0 and T=+24 hours and the percentage variation between T=0 and T=+24 hours is then calculated for the treated groups and the control groups.

Data set [2] in a line: Acute toxicity, intraperitoneal administration to mice. It is filed as in vivo. Particulars: mouse, in vivo, ip, read-out: LD50 (lethal dose causing the death of half of the animals).
Source text: as §1

The nature of data set [3]: Antithrombotic effects (statement only). The settings on record: in words.

For `CC(=O)N[C@H]1[C@H](Oc2ccc(Cc3ccc([N+](=O)[O-])cc3)cc2)O[C@H](CO)[C@@H](O)[C@@H]1O` [Example 3], in the data set with mice, the “LD0 (maximum non-lethal dose)” value was greater than 800 mg/kg. For the same molecule, in data set [1], the change in vivo at 100 mg/kg was -42%.

As to `O[C@@H]1[C@@H](O)[C@H](Oc2ccc(Cc3ccc(Cl)cc3Cl)cc2)OC[C@H]1O` [Example 26], the LD50 in data set [2] is 640 mg/kg. For the same molecule, the change in vivo at 100 mg/kg in data set [1] was -8%.

As for `CS(=O)(=O)c1ccc(Cc2ccc(O[C@@H]3O[C@H](CO)[C@@H](O)[C@H](O)[C@H]3O)cc2)cc1` [Example 91, 4-(4-mesylbenzyl)phenyl β-D-glucopyranoside], the “LD0 (maximum non-lethal dose)” value with mice is listed as greater than 800 mg/kg. Moreover, in data set [1], the change in vivo at 100 mg/kg is -40%.

With `O[C@@H]1[C@@H](O)[C@H](Oc2ccc(Cc3ccc(Br)cc3)cc2)OC[C@H]1O` [Example 10], the “LD0 (maximum non-lethal dose)” value in the data set with mice is on record as no less than 900 mg/kg. In data set [1], the change in vivo at 100 mg/kg is -39%. As to `O[C@@H]1[C@@H](O)[C@H](Oc2ccc(Cc3ccccc3)cc2)OC[C@H]1O` [Example 33, 4-(benzyl)phenyl β-D-xylopyranoside], in the data set with mice, the “LD0 (maximum non-lethal dose)” value is greater than 800 mg/kg. Moreover, the change in vivo at 100 mg/kg in data set [1] was -38%. In the case of `O[C@@H]1[C@@H](O)[C@H](Oc2ccc(Cc3ccc(C(F)(F)F)cc3)cc2)OC[C@H]1O` [Example 18], in data set [2], the LD50 was greater than 900 mg/kg. In data set [1], the change in vivo at 100 mg/kg was -17%. As for `O[C@@H]1[C@@H](O)[C@H](Oc2cccc(Cc3ccccc3)c2)OC[C@H]1O` [Example 77], in data set [1], the change in vivo at 100 mg/kg is -25%. The same measure, in the same setting: next, `O[C@@H]1[C@@H](O)[C@H](Oc2cccc(Cc3ccc(Cl)cc3)c2)OC[C@H]1O` [Example 75]: -43%.

As to `O=[N+]([O-])c1cccc(Cc2ccc(O[C@@H]3OC[C@@H](O)[C@H](O)[C@H]3O)cc2)c1` [Example 2, 4-(3-nitrobenzyl)phenyl β-D-xylopyranoside], in the data set on mice, the “LD0 (maximum non-lethal dose)” value was greater than 800 mg/kg. Moreover, in data set [1], the change in vivo at 100 mg/kg is -27%.

Regarding `COc1cccc(Cc2ccc(O[C@@H]3OC[C@@H](O)[C@H](O)[C@H]3O)cc2)c1` [Example 17], the “LD0 (maximum non-lethal dose)” value in the data set with mice was greater than 1000 mg/kg. The change in vivo at 100 mg/kg in data set [1] was -50%.

For `Cc1cc(Cc2ccc([N+](=O)[O-])cc2)cc(C)c1OC1OC[C@@H](O)[C@H](O)[C@H]1O` (stereo partly drawn) [Example 82], in the data set on mice, the “LD0 (maximum non-lethal dose)” value was greater than 800 mg/kg. Regarding `CS(=O)(=O)c1ccc(Cc2ccc(O[C@@H]3OC[C@@H](O)[C@H](O)[C@H]3O)cc2)cc1` [Example 89, 4-(4-mesylbenzyl)phenyl β-D-xylopyranoside], the median lethal dose (LD50) in data set [2] worked out at 450 mg/kg. Also, the change in vivo at 45 mg/kg in data set [1] (45 mg/kg p.o. at T=0 and T=+7 hours) was -30%. With `Cc1ccc(Cc2cc(C)c(OC3OC[C@@H](O)[C@H](O)[C@H]3O)c(C)c2)cc1` (stereo partly drawn) [Example 30], the median lethal dose (LD50) in data set [2] was found to be 630 mg/kg. Besides, the change in vivo at 100 mg/kg in data set [1] is -12%.

On to `O[C@@H]1[C@@H](O)[C@H](Oc2ccc(Cc3ccccc3Cl)cc2)OC[C@H]1O` [Example 7], for which the “LD0 (maximum non-lethal dose)” value with mice was greater than 800 mg/kg. The change in vivo at 100 mg/kg in data set [1] is -20%. Regarding `O=[N+]([O-])c1cc(Cc2ccccc2)ccc1O[C@@H]1OC[C@@H](O)[C@H](O)[C@H]1O` [Example 34], in data set [2], the LD50 amounted to 250 mg/kg. Also, in data set [1] (25 mg/kg p.o. at T=0 and T=+7 hours), the change in vivo at 25 mg/kg was -15%. Take `Nc1ccc(Cc2ccc(O[C@@H]3OC[C@@H](O)[C@H](O)[C@H]3O)cc2)cc1` [Example 19]: the “LD0 (maximum non-lethal dose)” value in the data set with mice is greater than 800 mg/kg. Also, the change in vivo at 100 mg/kg in data set [1] was -29%.

With `COc1ccc(Cc2ccc(O[C@@H]3OC[C@@H](O)[C@H](O)[C@H]3O)cc2)cc1` [Example 15], the “LD0 (maximum non-lethal dose)” value in the data set on mice is greater than 800 mg/kg. In addition, in data set [1], the change in vivo at 100 mg/kg is -47%. Taken in the same sequence, the figures for `CC(=O)N[C@H]1[C@H](Oc2ccc(Cc3ccc(S(C)(=O)=O)cc3)cc2)O[C@H](CO)[C@@H](O)[C@@H]1O` [Example 93, 4-(4-mesylbenzyl)phenyl β-D-N-acetylglucosaminopyranoside] were greater than 800 mg/kg and -36%. Taken in the same sequence, the figures for `O[C@@H]1[C@@H](O)[C@H](Oc2ccc(Cc3ccc(Cl)cc3)cc2)OC[C@H]1O` [Example 9, 4-(4-chlorobenzyl)phenyl β-D-xylopyranoside] were greater than 800 mg/kg and -37%.

With `Cc1ccc(Cc2ccc(O[C@@H]3OC[C@@H](O)[C@H](O)[C@H]3O)cc2)cc1` [Example 11], in the data set with mice, the “LD0 (maximum non-lethal dose)” value is greater than 800 mg/kg. The change in vivo at 100 mg/kg in data set [1] was -19%. The corresponding values for `Nc1cccc(Cc2ccc(O[C@@H]3OC[C@@H](O)[C@H](O)[C@H]3O)cc2)c1` [Example 23] are no less than 900 mg/kg and -28%. The corresponding values for `Cc1cc(C)c(Cc2ccc(O[C@@H]3OC[C@@H](O)[C@H](O)[C@H]3O)cc2)c(C)c1` [Example 27] are no less than 800 mg/kg and -13%.

Take `O=[N+]([O-])c1ccc(Cc2ccc(O[C@@H]3O[C@H](CO)[C@@H](O)[C@H](O)[C@H]3O)cc2)cc1` [Example 71]: in the data set with mice, the “LD0 (maximum non-lethal dose)” value was no less than 900 mg/kg. For the same molecule, the change in vivo at 65 mg/kg in data set [1] is -21%. Take `Cc1cccc(Cc2ccc(O[C@@H]3OC[C@@H](O)[C@H](O)[C@H]3O)cc2)c1` [Example 13]: the “LD0 (maximum non-lethal dose)” value in the data set on mice is recorded as no less than 800 mg/kg. Also, in data set [1], the change in vivo at 100 mg/kg was -24%. The corresponding values for `O=[N+]([O-])c1ccc(Cc2ccc(O[C@@H]3O[C@H](CO)[C@H](O)[C@H](O)[C@H]3O)cc2)cc1` [Example 4] are no less than 900 mg/kg and -33%. The corresponding values for `O=[N+]([O-])c1ccc(Cc2ccc(O[C@@H]3OC[C@H](O)[C@H](O)[C@H]3O)cc2)cc1` [Example 6] are no less than 900 mg/kg and -29%.

Regarding `Oc1ccc(Cc2ccc(O[C@@H]3OC[C@@H](O)[C@H](O)[C@H]3O)cc2)cc1` [Example 29], the “LD0 (maximum non-lethal dose)” value in the data set on mice is listed as no less than 800 mg/kg. Moreover, in data set [1], the change in vivo at 100 mg/kg is -37%. In the case of `CN(C)c1ccc(Cc2ccc(O[C@@H]3OC[C@@H](O)[C@H](O)[C@H]3O)cc2)cc1` [Example 20], the change in vivo at 100 mg/kg in data set [1] was -22%. Consider `C[C@@H]1O[C@@H](Oc2ccc(Cc3ccc([N+](=O)[O-])cc3)cc2)[C@H](O)[C@H](O)[C@H]1O` [Example 5], for which, in data set [1], the change in vivo at 100 mg/kg was -7%.

For `O[C@@H]1[C@@H](O)[C@H](Oc2ccc(Cc3cccc(Cl)c3)cc2)OC[C@H]1O` [Example 8], the LD50 in data set [2] was no less than 800 mg/kg. In data set [1], the change in vivo at 100 mg/kg was -37%. On to `Cc1cc(Cc2ccccc2)ccc1O[C@@H]1OC[C@@H](O)[C@H](O)[C@H]1O` [Example 79], for which the LD50 in data set [2] was 320 mg/kg. The change in vivo at 30 mg/kg in data set [1] (30 mg/kg p.o. at T=0 and T=+7 hours) was -37%. Consider `CC(=O)O[C@@H]1[C@@H](OC(C)=O)[C@H](Oc2ccc(Cc3c(C)cc(C)cc3C)cc2)OC[C@H]1OC(C)=O` [Example 62], for which the “LD0 (maximum non-lethal dose)” value with mice is greater than 900 mg/kg. The change in vivo at 100 mg/kg in data set [1] was -18%.

Regarding `CSc1ccc(Cc2ccc(O[C@@H]3OC[C@@H](O)[C@H](O)[C@H]3O)cc2)cc1` [Example 85, 4-(4-methylthiobenzyl)phenyl β-D-xylopyranoside], the “LD0 (maximum non-lethal dose)” value with mice was greater than 800 mg/kg. Further, the change in vivo at 100 mg/kg in data set [1] is -23%.

For `O=[N+]([O-])c1ccc(Cc2ccc(O[C@@H]3OC[C@@H](O)[C@H](O)[C@H]3O)cc2)cc1` [Example 1, 4-(4-nitrobenzyl)phenyl β-D-xylopyranoside], in data set [2], the LD50 amounted to 650 mg/kg. Moreover, the change in vivo at 65 mg/kg in data set [1] is -39%. Besides, in data set [3], the antithrombotic effects entry is on record as “beneficial antithrombotic effects”. On to `Cc1ccccc1Cc1ccc(O[C@@H]2OC[C@@H](O)[C@H](O)[C@H]2O)cc1` [Example 12], for which the “LD0 (maximum non-lethal dose)” value with mice is recorded as greater than 800 mg/kg. In data set [1], the change in vivo at 100 mg/kg is -28%.

One may read the LD50 as the dose expected to kill half of the subjects tested.

(Values after patent US4598068A, “Benzylphenyl osides, method of preparation and use therefor” (Societe de Recheres Industrielles, priority 1983, dated 1986).)
